Patent US9765091B2, “Tetrahydropyrazolo [3,4-b] azepine derivatives and their use as allosteric modulators of metabotropic glutamate receptors” (Addex Pharma S.A., priority 2010, dated 2017)

Molecular target: T1, human mGluR4 (Homo sapiens, UniProt Q14833)
T1 construct: expressed in transfected cells
Assay: Fluorescent cell based Ca2+ mobilization assay (FLIPR) on HEK-293 cells expressing human mGluR4
Conditions: positive allosteric modulation, HEK-293 cells expressing hmGluR4, stimulated by EC25 glutamate; mean of at least three independent experiments in duplicate; read-out: Ca^2+ Flux* (mean EC50)
Text: mGluR4 Assay on HEK-Expressing Human mGluR4
The compounds of the present invention are positive allosteric modulators of mGluR4 receptor. Their activity was examined on recombinant human mGluR4a receptors by detecting changes in intracellular Ca^2+ concentration, using the fluorescent Ca^2+-sensitive dye Fluo4-(AM) and a Fluorometric Imaging Plate Reader (FLIPR, Molecular Devices, Sunnyvale, Calif.).
The cDNA encoding the human metabotropic glutamate receptor (hmGluR4), (accession number NM_000841.1, NCBI Nucleotide database browser), was subcloned into an expression vector containing also the hygromycin resistance gene. In parallel, the cDNA encoding a G protein allowing redirection of the activation signal to intracellular calcium flux was subcloned into a different expression vector containing also the puromycin resistance gene. Transfection of both these vectors into HEK293 cells with PolyFect reagent (Qiagen) according to supplier's protocol, and hygromycin and puromycin treatment allowed selection of antibiotic resistant cells which had integrated stably one or more copies of the plasmids. Positive cellular clones expressing hmGluR4 were identified in a functional assay measuring changes in calcium fluxes in response to glutamate or selective known mGluR4 orthosteric agonists and antagonists. HEK-293 cells expressing hmGluR4 were maintained in media containing DMEM, dialyzed Fetal Calf Serum (10%), Glutamax™ (2 mM), Penicillin (100 units/mL), Streptomycin (100 μg/mL), Geneticin (100 μg/mL) and Hygromycin-B (40 μg/mL) and puromycin (1 μg/mL) at 37° C./5% CO2.
Human mGluR4 HEK-293 cells were plated out 24 hours prior to FLIPR^384 assay in black-walled, clear-bottomed, poly-L-ornithine-coated 384-well plates at a density of 25,000 cells/well in a glutamine/glutamate free DMEM medium containing foetal bovine serum (10%), penicillin (100 units/mL) and streptomycin (100 μg/mL) at 37° C./5% CO2.
On the day of the assay, the medium was aspirated and the cells were loaded with a 3 μM solution of Fluo4-AM (LuBioScience, Lucerne, Switzerland) in 0.03% pluronic acid. After 1 hour at 37° C./5% CO2, the non incorporated dye was removed by washing cell plate with the assay buffer and the cells were left in the dark at room temperature for […] before testing. All assays were performed in a pH 7.4 buffered-solution containing 20 mM HEPES, 143 mM NaCl, 6 mM KCl, 1 mM MgSO4, 1 mM CaCl2, 0.125 mM sulfapyrazone and 0.1% glucose.
After 10 s of basal fluorescence recording, various concentrations of the compounds of the invention were added to the cells. Changes in fluorescence levels were first monitored for 180 s in order to detect any agonist activity of the compounds. Then the cells were stimulated by an EC25 glutamate concentration for an additional 110 s in order to measure enhancing activities of the compounds of the invention. EC25 glutamate concentration is the concentration giving 25% of the maximal glutamate response.
The concentration-response curves of representative compounds of the present invention were generated using the Prism GraphPad software (Graph Pad Inc, San Diego, USA). The curves were fitted to a four-parameter logistic equation: (Y=Bottom+(Top−Bottom)/(1+10^((Log EC50−X)*Hill Slope) allowing the determination of EC50 values.
The Table 4 below represents the mean EC50 obtained from at least three independent experiments of selected molecules performed in duplicate.

T1 sequence (Q14833 33-912): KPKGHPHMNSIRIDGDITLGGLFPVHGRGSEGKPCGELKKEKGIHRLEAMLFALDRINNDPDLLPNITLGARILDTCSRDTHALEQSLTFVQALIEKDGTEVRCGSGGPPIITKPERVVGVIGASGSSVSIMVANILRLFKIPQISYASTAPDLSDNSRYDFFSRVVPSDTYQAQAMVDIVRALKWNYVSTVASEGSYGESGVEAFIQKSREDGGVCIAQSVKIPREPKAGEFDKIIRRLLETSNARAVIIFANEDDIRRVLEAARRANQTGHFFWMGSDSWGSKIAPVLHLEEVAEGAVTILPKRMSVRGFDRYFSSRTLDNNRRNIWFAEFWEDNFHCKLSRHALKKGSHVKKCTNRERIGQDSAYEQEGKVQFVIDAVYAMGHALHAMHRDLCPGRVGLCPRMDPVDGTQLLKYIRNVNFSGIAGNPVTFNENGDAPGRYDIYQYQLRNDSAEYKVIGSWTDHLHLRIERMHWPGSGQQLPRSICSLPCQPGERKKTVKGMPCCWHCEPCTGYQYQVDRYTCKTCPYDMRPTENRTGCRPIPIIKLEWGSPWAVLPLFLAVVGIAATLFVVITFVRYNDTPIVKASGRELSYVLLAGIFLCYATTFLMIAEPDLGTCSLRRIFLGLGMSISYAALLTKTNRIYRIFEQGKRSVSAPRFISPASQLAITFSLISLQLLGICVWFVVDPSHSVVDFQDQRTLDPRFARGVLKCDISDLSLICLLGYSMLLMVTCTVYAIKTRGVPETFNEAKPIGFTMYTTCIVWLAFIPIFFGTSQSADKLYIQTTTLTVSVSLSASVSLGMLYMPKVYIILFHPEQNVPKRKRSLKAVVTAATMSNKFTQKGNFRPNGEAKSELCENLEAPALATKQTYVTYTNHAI

Row | Compound | EC50
1 | CN1CCc2sc(Nc3ncc(F)cn3)nc2-c2c[nH]nc21 [Compound 1-2, N-(5-Fluoropyrimidin-2-yl)-6-methyl-4,5,6,8-tetrahydropyrazolo[3,4-b]thiazolo[4,5-d]azepin-2-amine] | 100 to 1000 nM
2 | CCN1CCc2sc(Nc3nccc(C)n3)nc2-c2c[nH]nc21 [Compound 1-3, 6-Ethyl-N-(4-methylpyrimidin-2-yl)-4,5,6,8-tetrahydropyrazolo[3,4-b]thiazolo[4,5-d]azepin-2-amine] | < 100 nM
3 | Cc1nc(Nc2nc3c(s2)CCN(C)c2n[nH]cc2-3)ncc1F [Compound 1-9, N-(5-Fluoro-4-methylpyrimidin-2-yl)-6-methyl-4,5,6,8-tetrahydropyrazolo[3,4-b]thiazolo[4,5-d]azepin-2-amine] | 100 to 1000 nM
4 | COCCN1CCc2sc(Nc3cccc(C)n3)nc2-c2c[nH]nc21 [Compound 1-13, 6-(2-Methoxyethyl)-N-(6-methylpyridin-2-yl)-4,5,6,8-tetrahydropyrazolo[3,4-b]thiazolo[4,5-d]azepin-2-amine] | < 100 nM
5 | COCCN1CCc2sc(Nc3nsc(C)n3)nc2-c2c[nH]nc21 [Compound 1-19, 6-(2-Methoxyethyl)-N-(5-methyl-1,2,4-thiadiazol-3-yl)-4,5,6,8-tetrahydropyrazolo[3,4-b]thiazolo[4,5-d]azepin-2-amine] | < 100 nM
6 | OCCN1CCc2sc(Nc3ncc(F)cn3)nc2-c2c[nH]nc21 [Compound 1-20, 2-(2-(5-Fluoropyrimidin-2-ylamino)-4,5-dihydropyrazolo[3,4-b]thiazolo[4,5-d]azepin-6(8H)-yl)ethanol] | 100 to 1000 nM
7 | Fc1cnc(Nc2nc3c(s2)CCN(Cc2ccncc2)c2n[nH]cc2-3)nc1 [Compound 1-27, N-(5-Fluoropyrimidin-2-yl)-6-(pyridin-4-ylmethyl)-4,5,6,8-tetrahydropyrazolo[3,4-b]thiazolo[4,5-d]azepin-2-amine] | < 100 nM
8 | CS(=O)(=O)CCN1CCc2sc(Nc3ncc(F)cn3)nc2-c2c[nH]nc21 [Compound 1-28, N-(5-Fluoropyrimidin-2-yl)-6-(2-(methylsulfonyl)ethyl)-4,5,6,8-tetrahydropyrazolo[3,4-b]thiazolo[4,5-d]azepin-2-amine] | < 100 nM
9 | Fc1cnc(Nc2nc3c(s2)CCN(C2CCOC2)c2n[nH]cc2-3)nc1 (stereo not drawn) [Compound 1-31, N-(5-Fluoropyrimidin-2-yl)-6-(tetrahydrofuran-3-yl)-4,5,6,8-tetrahydropyrazolo[3,4-b]thiazolo[4,5-d]azepin-2-amine] | < 100 nM
10 | Fc1cnc(Nc2nc3c(s2)CCN(CC2CCCC2)c2n[nH]cc2-3)nc1 [Compound 1-36, 6-(Cyclopentylmethyl)-N-(5-fluoropyrimidin-2-yl)-4,5,6,8-tetrahydropyrazolo[3,4-b]thiazolo[4,5-d]azepin-2-amine] | < 100 nM
11 | Cc1ccnc(Nc2nc3c(s2)CCN(CC2CC2)c2n[nH]cc2-3)n1 [Compound 1-37, 6-(Cyclopropylmethyl)-N-(4-methylpyrimidin-2-yl)-4,5,6,8-tetrahydropyrazolo[3,4-b]thiazolo[4,5-d]azepin-2-amine] | < 100 nM
12 | Fc1cnc(Nc2nc3c(s2)CCN(CC2CCCCC2)c2n[nH]cc2-3)nc1 [Compound 1-38, 6-(Cyclohexylmethyl)-N-(5-fluoropyrimidin-2-yl)-4,5,6,8-tetrahydropyrazolo[3,4-b]thiazolo[4,5-d]azepin-2-amine] | < 100 nM

Now from value to molecule:

Row | EC50 | Compound
13 | < 100 nM | Fc1cnc(Nc2nc3c(s2)CCN(CC2CC2)c2n[nH]cc2-3)nc1 [Compound 1-4, 6-(Cyclopropylmethyl)-N-(5-fluoropyrimidin-2-yl)-4,5,6,8-tetrahydropyrazolo[3,4-b]thiazolo[4,5-d]azepin-2-amine]
14 | < 100 nM | CC(C)N1CCc2sc(Nc3ncc(F)cn3)nc2-c2c[nH]nc21 [Compound 1-6, N-(5-Fluoropyrimidin-2-yl)-6-isopropyl-4,5,6,8-tetrahydropyrazolo[3,4-b]thiazolo[4,5-d]azepin-2-amine]
15 | < 100 nM | COCCN1CCc2sc(Nc3nccc(C)n3)nc2-c2c[nH]nc21 [Compound 1-7, 6-(2-Methoxyethyl)-N-(4-methylpyrimidin-2-yl)-4,5,6,8-tetrahydropyrazolo[3,4-b]thiazolo[4,5-d]azepin-2-amine]
16 | < 100 nM | Cc1ccnc(Nc2nc3c(s2)CCN(CC2CCCO2)c2n[nH]cc2-3)n1 (stereo not drawn) [Compound 1-10, N-(4-Methylpyrimidin-2-yl)-6-((tetrahydrofuran-2-yl)methyl)-4,5,6,8-tetrahydropyrazolo[3,4-b]thiazolo[4,5-d]azepin-2-amine]
17 | < 100 nM | COCCN1CCc2sc(Nc3ncc(F)cn3)nc2-c2c[nH]nc21 [Compound 1-12, N-(5-Fluoropyrimidin-2-yl)-6-(2-methoxyethyl)-4,5,6,8-tetrahydropyrazolo[3,4-b]thiazolo[4,5-d]azepin-2-amine]
18 | < 100 nM | Cc1ccnc(Nc2nc3c(s2)CCN(Cc2ccn(C)n2)c2n[nH]cc2-3)n1 [Compound 1-16, 6-((1-Methyl-1H-pyrazol-3-yl)methyl)-N-(4-methylpyrimidin-2-yl)-4,5,6,8-tetrahydropyrazolo[3,4-b]thiazolo[4,5-d]azepin-2-amine]
19 | 100 to 1000 nM | Cc1ccnc(Nc2nc3c(s2)CCN(CC(=O)N(C)C)c2n[nH]cc2-3)n1 [Compound 1-17, N,N-Dimethyl-2-(2-(4-methylpyrimidin-2-ylamino)-4,5-dihydropyrazolo[3,4-b]thiazolo[4,5-d]azepin-6(8H)-yl)acetamide]
20 | < 100 nM | COCCN1CCc2sc(Nc3nccc(OC)n3)nc2-c2c[nH]nc21 [Compound 1-18, 6-(2-Methoxyethyl)-N-(4-methoxypyrimidin-2-yl)-4,5,6,8-tetrahydropyrazolo[3,4-b]thiazolo[4,5-d]azepin-2-amine]
21 | < 100 nM | COCCN1CCc2sc(Nc3cccc(N)n3)nc2-c2c[nH]nc21 [Compound 1-21, N^2-(6-(2-Methoxyethyl)-4,5,6,8-tetrahydropyrazolo[3,4-b]thiazolo[4,5-d]azepin-2-yl) pyridine-2,6-diamine]
22 | < 100 nM | Cc1cc(CN2CCc3sc(Nc4ncc(F)cn4)nc3-c3c[nH]nc32)no1 [Compound 1-22, N-(5-Fluoropyrimidin-2-yl)-6-((5-methylisoxazol-3-yl)methyl)-4,5,6,8-tetrahydropyrazolo[3,4-b]thiazolo[4,5-d]azepin-2-amine]
23 | < 100 nM | Fc1cnc(Nc2nc3c(s2)CCN(Cc2ccccn2)c2n[nH]cc2-3)nc1 [Compound 1-26, N-(5-Fluoropyrimidin-2-yl)-6-(pyridin-2-ylmethyl)-4,5,6,8-tetrahydropyrazolo[3,4-b]thiazolo[4,5-d]azepin-2-amine]
24 | 100 to 1000 nM | Fc1cnc(Nc2nc3c(s2)CCN(CCC(F)(F)F)c2n[nH]cc2-3)nc1 [Compound 1-29, N-(5-Fluoropyrimidin-2-yl)-6-(3,3,3-trifluoropropyl)-4,5,6,8-tetrahydropyrazolo[3,4-b]thiazolo[4,5-d]azepin-2-amine]
25 | 100 to 1000 nM | Fc1cnc(Nc2nc3c(s2)CCN(CC(F)(F)F)c2[nH]ncc2-3)nc1 [Compound 1-30, N-(5-Fluoropyrimidin-2-yl)-6-(2,2,2-trifluoroethyl)-4,5,6,7-tetrahydropyrazolo[3,4-b]thiazolo[4,5-d]azepin-2-amine]
26 | 1000 to 10000 nM | CNCCN1CCc2sc(Nc3ncc(F)cn3)nc2-c2c[nH]nc21 [Compound 1-32, N-(5-Fluoropyrimidin-2-yl)-6-(2-(methylamino)ethyl)-4,5,6,8-tetrahydropyrazolo[3,4-b]thiazolo[4,5-d]azepin-2-amine]
27 | < 100 nM | COCCCN1CCc2sc(Nc3ncc(F)cn3)nc2-c2c[nH]nc21 [Compound 1-33, N-(5-Fluoropyrimidin-2-yl)-6-(3-methoxypropyl)-4,5,6,8-tetrahydropyrazolo[3,4-b]thiazolo[4,5-d]azepin-2-amine]
